The test system of the data set is patients with peripheral vascular disease and diabetes mellitus. In words: Patient case histories: microvascular disease / vascular insufficiency. The class given is in vivo, human. The following applies: for side effects: donepizil 5-10 mg daily. From the text: In summary, vascular insufficiency from diabetes is associated with compromise of the microvascular circulation. Treatment with an effective dose of an acetylcholinesterase inhibitor raises the relative concentration of acetylcholine promoting vasodilitation of the microcirculation (end arterioles) through stimulation of neuronal and non-neuronal acetylcholine receptors in the intima of the blood vessels. The beneficial effects of promoting vasodilitation and enhanced tissue perfusion correcting the dystrophic changes and alleviating ischemic pain and ulcers is readily apparent in this series of patients.
The present invention provides a method for the medical management of peripheral vascular disease. The management of peripheral vascular disease with acetylcholinesterase inhibitor addresses the central dilemma in vascular perfusion of the lower extremities. By increasing the relative concentration of acetylcholine, the parasympthetic nervous system is enhanced, improving blood flow at the tissue level by relaxation of the small end arterioles and improving perfusion therefore decreasing vascular edema, enhancing resolution of trohpic ulcers and alleviating rest pain and claudication complaints. The parasympathetic nervous system controls vascular beds in the small arterioles and by increasing the available acetylcholine, dilatation occurs and blood flow improves. By treatment with acetylcholinesterase inhibitors the end results in improved vascular blood supply, decreased congestion at the small arterioles level and improved blood supply. This is particularly necessary in diabetic patients. The presence of non-neuronal acetylcholine receptors with the intima of blood vessels at the microvascular level represents a second physiologic mechanism whereby dilatation of small blood vessels is facilitated by the use of an acetylcholinesterase inhibitor. This latter mechanism owing to the sensitive nature of the cholinesterases associated with the non neuronal acetylcholine system provides sustained cholinergic activity impacting the microvascular circulation and improving perfusion at the critical end arteriole-capillary-venule level.

The record followed here is patent publication US20060183733A1, “Treating microvasculature diseases with acetyl cholinesterase inhibitors” (priority 2005, published 2006).

Structures are written as SMILES. “Also recorded” adds a separate entry of the source.

Take `COc1cc2c(cc1OC)C(=O)C(CC1CCN(Cc3ccccc3)CC1)C2` (stereo not shown) [donepizil, 1-benzyl-4->(5,6-dimethoxy-1-indanon)-2-yl methylpiperidine]: the side effects result is given as “no diarrhea or ulcer symptoms; also recorded: No serious untoward side effects were noted; also recorded: able to tolerate this treatment for the next 6 months; also recorded: No deleterious side effects such a diarrhea or acid reflux were noted; also recorded: no diarrhea or symptoms of gastrointestinal reflux; also recorded: without any untoward side effects; also recorded: without deleterious side affects such a diarrhea or acid reflux; also recorded: absence of any adverse side effects”. The “clinical outcome (vascular edema, ulcers, pain, foot temperature)” value (donepizil 5 mg daily, 2 weeks to >1 year, single patients, listed as donepezil) was “the heel ulcer completely resolved”. Further, where the note is “listed as donepezil”, the side effects entry is recorded as “without nausea/vomiting or diarrhea symptoms”. In addition, the “clinical outcome (ulcers, edema, phantom discomfort)” value (donepizil increased to 10 mg daily, additional one month (a person)) was “near complete healing of the leg ulcers and complete resolution of their edema”.
